Experimental data published in PubChem BioAssay AID256 (DTP/NCI, 2004).
Values joined by “and” are separate entries in the source; they are usually repeats but may differ in a detail not shown here. Identical values can stand only once. Toxic doses and inconclusive results are not listed. The calls were made as follows: active = survival T/C of 150% or more; inactive = T/C below 125% in these data.

System: CD2F1 mice, L1210 leukemia ip, survival T/C
Assay: NCI In Vivo Anticancer Drug Screen. Data for tumor model L1210 Leukemia (intraperitoneal) in CD2F1 (CDF1) mice
Conditions: endpoint: mean survival time, higher = longer survival
How it was run: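 Vehicle-treated tumor-bearing mice served as controls (C) for compound-treated mice (T). Reported figure is T divided by C.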

[1] = dose: 100.0 mg/kg/injection, schedule: Q01DX009 (ip), vehicle: saline
[2] = dose: 200.0 mg/kg/injection, schedule: Q01DX009 (ip), vehicle: saline
[3] = dose: 400.0 mg/kg/injection, schedule: Q01DX009 (ip), vehicle: saline
[4] = dose: 100.0 mg/kg/injection, schedule: Q01DX001 (ip), vehicle: saline
[5] = dose: 200.0 mg/kg/injection, schedule: Q01DX001 (ip), vehicle: saline
[6] = dose: 400.0 mg/kg/injection, schedule: Q01DX001 (ip), vehicle: saline
[7] = dose: 100.0 mg/kg/injection, schedule: Q04DX003 (ip), vehicle: saline with Tween-80
[8] = dose: 200.0 mg/kg/injection, schedule: Q04DX003 (ip), vehicle: saline with Tween-80
[9] = dose: 12.5 mg/kg/injection, schedule: Q01DX009 (ip), vehicle: saline with Tween-80
[10] = dose: 25.0 mg/kg/injection, schedule: Q01DX009 (ip), vehicle: saline with Tween-80
[11] = dose: 50.0 mg/kg/injection, schedule: Q01DX009 (ip), vehicle: saline with Tween-80
[12] = dose: 100.0 mg/kg/injection, schedule: Q01DX009 (ip), vehicle: saline with Tween-80
[13] = dose: 200.0 mg/kg/injection, schedule: Q01DX009 (ip), vehicle: saline with Tween-80
[14] = dose: 100.0 mg/kg/injection, schedule: Q04DX002 (ip), vehicle: saline with Tween-80
[15] = dose: 200.0 mg/kg/injection, schedule: Q04DX002 (ip), vehicle: saline with Tween-80
[16] = dose: 400.0 mg/kg/injection, schedule: Q04DX003 (ip), vehicle: saline with Tween-80

Measured: T/C

CC(=O)ON(C(C)=O)c1ccc(S(=O)(=O)c2ccc(N(OC(C)=O)C(C)=O)cc2)cc1
inactive: [1] 92 % of control | [2] 90 % of control | [3] 89 % of control

COc1ccc(Cc2cncc3cc(O)c(OC)cc23)cc1O
inactive: [4] 102 % of control | [5] 96 % of control | [6] 96 % of control

O=S(=O)(F)/C=C/c1ccccc1
inactive: [7] 88 % of control | [8] 97 % of control

O=S(=O)(c1ccccc1)c1cccs1
inactive: dose: 50.0 mg/kg/injection, schedule: Q04DX003 (ip), vehicle: saline 93 % of control | [4] 110 % of control | dose: 100.0 mg/kg/injection, schedule: Q04DX003 (ip), vehicle: saline 98 % of control | [5] 112 % of control | dose: 200.0 mg/kg/injection, schedule: Q04DX003 (ip), vehicle: saline 95 % of control | [6] 112 % of control

N#Cc1cc(N2CC2)c([N+](=O)[O-])cc1[N+](=O)[O-]
inactive: dose: 100.0 mg/kg/injection, schedule: Q01DX001 (ip), vehicle: Klucel (hydroxypropylcellulose) (HPC) 102 % of control | dose: 200.0 mg/kg/injection, schedule: Q01DX001 (ip), vehicle: Klucel (hydroxypropylcellulose) (HPC) 103 % of control | dose: 400.0 mg/kg/injection, schedule: Q01DX001 (ip), vehicle: Klucel (hydroxypropylcellulose) (HPC) 103 % of control

CCN(CCP(c1ccccc1)c1ccccc1)CCP(c1ccccc1)c1ccccc1
inactive: dose: 150.0 mg/kg/injection, schedule: Q01DX001 (ip), vehicle: other 110 % of control | dose: 300.0 mg/kg/injection, schedule: Q01DX001 (ip), vehicle: other 115 % of control

[Cl][Pt+2]([Cl])([Cl])[Cl].[NH-]C1CCCCC1.[NH-]C1CCCCC1
inactive: [9] 96 % of control | [10] 91 % of control | [11] 100 % of control | [12] 89 % of control

NC(=O)c1ccc[n+](Cc2ccccc2)c1
inactive: dose: 75.0 mg/kg/injection, schedule: Q01DX001 (ip), vehicle: saline 98 % of control | dose: 150.0 mg/kg/injection, schedule: Q01DX001 (ip), vehicle: saline 96 % of control

Cc1cc(Cl)ccc1NC(=O)Nc1ccccc1C(N)=O
inactive: [11] 95 % of control | [12] 95 % of control | [13] 91 % of control

c1ccc(CCNc2ncnc3nc[nH]c23)cc1
inactive: dose: 6.25 mg/kg/injection, schedule: Q01DX005 (ip), vehicle: water 94 % of control | dose: 12.5 mg/kg/injection, schedule: Q01DX005 (ip), vehicle: water 96 % of control | dose: 25.0 mg/kg/injection, schedule: Q01DX005 (ip), vehicle: water 96 % of control | dose: 50.0 mg/kg/injection, schedule: Q01DX005 (ip), vehicle: water 97 % of control | dose: 100.0 mg/kg/injection, schedule: Q01DX005 (ip), vehicle: water 92 % of control | dose: 200.0 mg/kg/injection, schedule: Q01DX005 (ip), vehicle: water 111 % of control

C=CCc1cccc(OC)c1OCCN(CC)CC
inactive: dose: 5.0 mg/kg/injection, schedule: Q01DX009 (ip), vehicle: saline with Tween-80 102 % of control | dose: 5.0 mg/kg/injection, schedule: Q04DX003 (ip), vehicle: saline with Tween-80 94 % of control | dose: 10.0 mg/kg/injection, schedule: Q01DX009 (ip), vehicle: saline with Tween-80 96 % of control | dose: 10.0 mg/kg/injection, schedule: Q04DX003 (ip), vehicle: saline with Tween-80 96 % of control | dose: 20.0 mg/kg/injection, schedule: Q01DX009 (ip), vehicle: saline with Tween-80 91 % of control | dose: 20.0 mg/kg/injection, schedule: Q04DX003 (ip), vehicle: saline with Tween-80 96 % of control

NC(=S)Nc1ccccc1[N+](=O)[O-]
inactive: dose: 50.0 mg/kg/injection, schedule: Q04DX003 (ip), vehicle: saline with Tween-80 103 % of control and 104 % of control | dose: 100.0 mg/kg/injection, schedule: Q01DX001 (ip), vehicle: saline with Tween-80 101 % of control | [14] 95 % of control | [7] 97 % of control and 101 % of control | dose: 200.0 mg/kg/injection, schedule: Q01DX001 (ip), vehicle: saline with Tween-80 102 % of control | [15] 93 % of control | [8] 97 % of control and 111 % of control

O=C1OC(=O)c2ccc([N+](=O)[O-])c3c([N+](=O)[O-])ccc1c23
inactive: [7] 92 % of control | [8] 95 % of control | [16] 90 % of control

O=[N+]([O-])c1ccc(N/N=C2/CCSc3ccccc32)cc1
inactive: [1] 102 % of control | [2] 101 % of control | [3] 95 % of control

O=C(SCN1CCCCC1)c1ccccc1
inactive: [11] 98 % of control | [12] 103 % of control | [7] 97 % of control | [8] 95 % of control

Oc1ccc(C(=S)N2CCOCC2)cc1
inactive: [1] 100 % of control | [2] 95 % of control | [3] 94 % of control

Nc1nc(N)c2[nH]c(-c3ccccc3)nc2n1
inactive: dose: 6.25 mg/kg/injection, schedule: Q01DX005 (ip), vehicle: saline with Tween-80 100 % of control | dose: 12.5 mg/kg/injection, schedule: Q01DX005 (ip), vehicle: saline with Tween-80 97 % of control | dose: 25.0 mg/kg/injection, schedule: Q01DX005 (ip), vehicle: saline with Tween-80 99 % of control | dose: 50.0 mg/kg/injection, schedule: Q01DX005 (ip), vehicle: saline with Tween-80 99 % of control

CC(=O)NCC(=O)[O][Sn]([c]1ccc(C)cc1)([c]1ccc(C)cc1)[c]1ccc(C)cc1
inactive: dose: 0.19 mg/kg/injection, schedule: Q01DX009 (ip), vehicle: saline 97 % of control | dose: 0.39 mg/kg/injection, schedule: Q01DX009 (ip), vehicle: saline 105 % of control | dose: 0.78 mg/kg/injection, schedule: Q01DX009 (ip), vehicle: saline 103 % of control and 111 % of control | dose: 1.56 mg/kg/injection, schedule: Q01DX009 (ip), vehicle: saline 100 % of control | dose: 3.12 mg/kg/injection, schedule: Q01DX009 (ip), vehicle: saline 91 % of control

CC(C)(C)C(=O)CC(=O)C(C)(C)C
inactive: [7] 95 % of control and 94 % of control | [8] 91 % of control and 100 % of control | [16] 95 % of control

S=P(S)(c1ccccc1)c1ccccc1
inactive: dose: 80.5 mg/kg/injection, schedule: Q01DX009 (ip), vehicle: saline with Tween-80 104 % of control | dose: 161.0 mg/kg/injection, schedule: Q01DX009 (ip), vehicle: saline with Tween-80 98 % of control | dose: 322.0 mg/kg/injection, schedule: Q01DX009 (ip), vehicle: saline with Tween-80 100 % of control

O=C(Nc1ccc(-c2cc(-c3ccccc3)on2)cc1)c1ccccc1
inactive: [7] 90 % of control | [8] 88 % of control | [16] 88 % of control

Nc1nc(N)c(-c2ccc(Cl)c(Cl)c2)c(CBr)n1
inactive: [9] 102 % of control | [10] 105 % of control

O=S1c2ccccc2-c2ccccc21
inactive: [14] 92 % of control | [15] 100 % of control | dose: 400.0 mg/kg/injection, schedule: Q04DX002 (ip), vehicle: saline with Tween-80 103 % of control

CC1(C)Cc2ccccc2O1
inactive: [12] 104 % of control | [13] 91 % of control
